# Measurements as given in patent US20140161917A1, “Use of Nesprin-2 Expression Modulators and Compositions Thereof” (Avon Products, Inc., priority 2012, published 2014).
# System: Nesprin-2 (SYNE2)
# Assay: Assay for upregulation of Nesprin-2 mRNA (Panomics Quantigene multiplex branched DNA assay) in fibroblasts
# Type: cell-based, human
# Settings: 24 hours, vs vehicle control
# Description: A variety of botanical extract and synthetic compounds were tested for the ability to up-regulate […]-2 (SYNE2), Gene Accession Number-NM-182914.2. Normal human dermal fibroblasts or keratinocytes were cultured in 96-well tissue culture treated plates, containing appropriate culture medium. Stock solutions of actives were made in an appropriate vehicle (water/Ethanol/DMSO). Cells were treated with test material or respective vehicle control diluted in growth medium for 24 hours in a humidified 37° C. incubator with 10% CO2. The concentrations of each extract are provided based on the dry weight of the given plant extract, by which is meant the weight of the extract after volatile extraction solvents have been removed. After incubation, growth medium from each plate was removed and 100 μL of lysis buffer was added to the wells and placed in 37° C. incubator with 10% CO2 for 30 minutes. At the end of incubation, the cells are collected in freezer plates and placed in -80° C. freezer, until analysis. Changes in mRNA for after treatment were analysed using Panomics Quantigene multiplex assay that employs a branched DNA technology, following manufacturer's instructions (Affymetrix, CA). Percent increase (up-regulation) in mRNA for the […]-2 was calculated by comparing the test results to the control.
structure (smiles),measurement,setting,value
C[C@@H]1NC(=O)N[C@@H]1CCCCCC(=O)O [D-Desthiobiotin],"Nesprin-2 (percent up-regulation in mRNA, scaled score)",0.0001%,"++++ (0.001%, (>80 (++++))"
same,"Nesprin-2 (percent up-regulation in mRNA, scaled score)",0.001%,"++++ (0.001%, (>80 (++++))"
